For series [1] the following is noted: human, in vivo.
Another series is described as follows: clinical. The note with it: human, in vivo.

Each structure is given as a SMILES string. Marks after values point to notes of the source that are not given here.

Regarding `C=CCN1CC[C@]23c4c5ccc(O)c4O[C@H]2C(=O)CC[C@@]3(O)[C@H]1C5` [naloxone], in series [1], the plasma concentration was 0.068 ng/mL, the “t1/2 (apparent terminal half-life)” value was 2.21 (61.1)^f h and the “time for which analyte was quantifiable in plasma” value stood at 36 h. Besides, in the series “clinical”, the AUC(0-inf) was determined as 0.0772 ng·h/mL, the AUC(0-t) worked out at 0.0681 ng·h/mL, the concentration peaked (Cmax) at 0.0266 ng/mL and the Tmax worked out at 45 min.

As a reminder, the AUC(0-inf) is total exposure, with the tail of the curve extrapolated. Higher therefore signals high exposure. Usually AUC(0-t) stands for the area under the concentration-time curve up to a stated or last time point. Low values mean less exposure, high ones more exposure. Broadly, the Cmax is the highest concentration seen after dosing. What is called Tmax is the time from dosing to the highest level.

The record behind these values is patent publication US20180313858A1, “QUANTIFICATION OF DRUGS IN BIOLOGICAL SAMPLES” (Indivior UK Limited, priority 2015, published 2018).
